Measurements: article PMC5750218, “Protein-inspired antibiotics active against vancomycin- and daptomycin-resistant bacteria” (Nature Communications, 2018)
≈ marks a conversion by molar mass, not a printed value.

Assays:
Experiment in all cases: microbe, parasite or virus in culture
[1] = tested on: Bacillus subtilis ATCC 6633; type: cell-based; conditions: for Ac2Kaa concentration required to neutralise MIC activity / MIC: ATCC 6633, 48 h; for Molar excess of Ac2Kaa ligand required to antagonise antibacterial activity: [ligand]/[antibiotic], B. subtilis ATCC 6633, 24 h
Protocol: All compounds were dissolved in H2O. Bacillus subtilis ATCC® 6633™ NRS-231 was cultured in MHB at 37 °C for 48 h. A sample of each culture was then diluted 40-fold in fresh MHB and incubated at 37 °C for 18 h. Compounds were added to each row of 96-well NBS plates (NBS, Corning 3641), in duplicate. The tripeptide N,N΄-diacetyl-L-Lys-D-Ala-D-Ala was serially diluted twofold across the compound-containing wells from 6400 to 3 µg mL^−1. To this the resultant mid-log phase cultures were diluted to the final concentration of 5 × 10^5 CFU mL^−1, then added to wells of the compound-containing plates. All the plates were covered and incubated at 37 °C for 24 h.

[2] = tested on: Methicillin-resistant S. aureus ATCC 43300; conditions: ATCC 43300, 24 h
Protocol: (§1) Antimicrobial activity of compounds was tested against a number of bacterial strains by broth microdilution (BMD) assay with MIC determination, including S. aureus (MSSA ATCC® 29213™, MRSA ATCC® 43300™, VISA NARSA NRS1, VISA NARSA NRS4), Streptococcus pneumoniae (MDR ATCC® 700677™) and Enterococcus faecium (MDR VanA ATCC® 51559™). ATCC strains were sourced from the American Type Culture Collection and NRS strains from NARSA (Network on Antimicrobial Resistance in S. aureus) via BEI Resources (www.beiresources.org). All compounds were prepared to 160 µg mL^−1 solution in water from a stock solution of 1 mM concentration.
[…] […] Standards ranged from 64 to 0.03 µg mL^−1 and compounds from 8 to 0.003 µg mL^−1 with final assay volumes of 100 µL per well. Gram-positive bacteria were cultured in Mueller Hinton broth (MHB) (Bactolaboratories, Cat. no. 211443) at 37 °C overnight. A sample of each culture was then diluted 40-fold in fresh MHB and incubated at 37 °C for 2–3 h. […] All the plates were covered and incubated at 37 °C for 24 h. MICs were the lowest concentration showing no visible growth.

[3] = tested on: Vancomycin-resistant (VanA) Enterococcus faecium ATCC 51559; conditions: ATCC 51559
Protocol: as §1
(§2) The compounds, along with standard antibiotics were serially diluted twofold across the wells of 96-well non-binding surface (NBS) polystyrene plates (Corning 3641). […] Standards ranged from 64 to 0.03 µg mL^−1 and compounds from 8 to 0.003 µg mL^−1 with final assay volumes of 100 µL per well. Gram-positive bacteria were cultured in Mueller Hinton broth (MHB) (Bactolaboratories, Cat. no. 211443) at 37 °C overnight. A sample of each culture was then diluted 40-fold in fresh MHB and incubated at 37 °C for 2–3 h. […] All the plates were covered and incubated at 37 °C for 24 h. MICs were the lowest concentration showing no visible growth.

[4] = tested on: Vancomycin-intermediate S. aureus NRS1; conditions: Vancomycin-intermediate NRS1
Protocol: as §1, §2

[5] = tested on: Multi-drug-resistant S. pneumoniae ATCC 700677; conditions: ATCC 700677
Protocol: as §1, §2

CN[C@H](CC(C)C)C(=O)N[C@H]1C(=O)N[C@@H](CC(N)=O)C(=O)N[C@H]2C(=O)N[C@H]3C(=O)N[C@H](C(=O)N[C@H](C(=O)NCCCC[C@H](NC(=O)[C@H](CCCCN)NC(=O)[C@H](CCCCN)NC(=O)[C@H](CCCCN)NC(=O)[C@H](CCCCNC(=O)c4ccc(Oc5ccccc5)cc4)NC(=O)c4ccc(Oc5ccccc5)cc4)C(=O)O)c4cc(O)cc(O)c4-c4cc3ccc4O)[C@H](O)c3ccc(c(Cl)c3)Oc3cc2cc(c3O[C@@H]2O[C@H](CO)[C@@H](O)[C@H](O)[C@H]2O[C@H]2C[C@](C)(N)[C@H](O)[C@H](C)O2)Oc2ccc(cc2Cl)[C@H]1O [Compound 42, POB2K-KKK-K-(Vancomycin)-OH]
Ac2Kaa concentration required to neutralise MIC activity [1]: 1600 µg/mL
MIC [1]: ≤ 0.004 µg/mL
Molar excess of Ac2Kaa ligand required to antagonise antibacterial activity [1]: 131,225

CN[C@H](CC(C)C)C(=O)N[C@H]1C(=O)N[C@@H](CC(N)=O)C(=O)N[C@H]2C(=O)N[C@H]3C(=O)N[C@H](C(=O)N[C@H](C(=O)NCCCC[C@H](NC(=O)[C@H](CCCCN)NC(=O)[C@H](CCCCN)NC(=O)c4ccc(Oc5ccccc5)cc4)C(=O)O)c4cc(O)cc(O)c4-c4cc3ccc4O)[C@H](O)c3ccc(c(Cl)c3)Oc3cc2cc(c3O[C@@H]2O[C@H](CO)[C@@H](O)[C@H](O)[C@H]2O[C@H]2C[C@](C)(N)[C@H](O)[C@H](C)O2)Oc2ccc(cc2Cl)[C@H]1O [Compound 41, POB-KK-K-(Vancomycin)-OH]
Ac2Kaa concentration required to neutralise MIC activity [1]: 1.56 µg/mL
MIC [1]: 0.06 µg/mL (≈ 0.0296 µM)
Molar excess of Ac2Kaa ligand required to antagonise antibacterial activity [1]: 104

CNC(=O)[C@H](CCCCNC(=O)[C@H]1NC(=O)[C@H]2NC(=O)[C@H](NC(=O)[C@@H]3NC(=O)[C@H](CC(N)=O)NC(=O)[C@H](NC(=O)[C@@H](CC(C)C)NC)[C@H](O)c4ccc(c(Cl)c4)Oc4cc3cc(c4O[C@@H]3O[C@H](CO)[C@@H](O)[C@H](O)[C@H]3O[C@H]3C[C@](C)(N)[C@H](O)[C@H](C)O3)Oc3ccc(cc3Cl)[C@H]2O)c2ccc(O)c(c2)-c2c(O)cc(O)cc21)NC(=O)[C@H](CCCCN)NC(=O)[C@H](CCCN)NC(=O)[C@H](CCCCNC(=O)c1ccc(Oc2ccccc2)cc1)NC(=O)c1ccc(Oc2ccccc2)cc1 [Compound 33, POB2K-Orn-K-K(Vancomycin)-NHMe]
MIC MRSA [2]: <0.003 µg/mL
MIC VRE [3]: 1.5 µg/mL (≈ 0.637 µM)
MIC VISA [4]: 0.125 µg/mL (≈ 0.0531 µM)
MIC MDR S.P. [5]: 0.007 µg/mL (≈ 0.00297 µM)

CN[C@H](CC(C)C)C(=O)N[C@H]1C(=O)N[C@@H](CC(N)=O)C(=O)N[C@H]2C(=O)N[C@H]3C(=O)N[C@H](C(=O)N[C@H](C(=O)NCCCC[C@H](NC(=O)[C@H](CCCCN)NC(=O)[C@H](CCCCN)NC(=O)[C@H](CCCCN)NC(=O)c4ccc(Oc5ccccc5)cc4)C(=O)O)c4cc(O)cc(O)c4-c4cc3ccc4O)[C@H](O)c3ccc(c(Cl)c3)Oc3cc2cc(c3O[C@@H]2O[C@H](CO)[C@@H](O)[C@H](O)[C@H]2O[C@H]2C[C@](C)(N)[C@H](O)[C@H](C)O2)Oc2ccc(cc2Cl)[C@H]1O [Compound 40, POB-KKK-K-(Vancomycin)-OH]
Ac2Kaa concentration required to neutralise MIC activity [1]: 12.5 µg/mL
MIC [1]: 0.03 µg/mL (≈ 0.0139 µM)
Molar excess of Ac2Kaa ligand required to antagonise antibacterial activity [1]: 916

CNC(=O)[C@H](CCCCNC(=O)[C@H]1NC(=O)[C@H]2NC(=O)[C@H](NC(=O)[C@@H]3NC(=O)[C@H](CC(N)=O)NC(=O)[C@H](NC(=O)[C@@H](CC(C)C)NC)[C@H](O)c4ccc(c(Cl)c4)Oc4cc3cc(c4O[C@@H]3O[C@H](CO)[C@@H](O)[C@H](O)[C@H]3O[C@H]3C[C@](C)(N)[C@H](O)[C@H](C)O3)Oc3ccc(cc3Cl)[C@H]2O)c2ccc(O)c(c2)-c2c(O)cc(O)cc21)NC(=O)[C@H](CCCCN)NC(=O)[C@@H](CCCCN)NC(=O)[C@H](CCCCNC(=O)c1ccc(Oc2ccccc2)cc1)NC(=O)c1ccc(Oc2ccccc2)cc1 [Compound 26]
MIC MRSA [2]: <0.003 µg/mL
MIC VRE [3]: 1.5 µg/mL (≈ 0.634 µM)
MIC VISA [4]: 0.19 µg/mL (≈ 0.0803 µM)
MIC MDR S.P. [5]: <0.003 µg/mL

CCCCCCCCCCC(=O)NCC(=O)N[C@@H](CO)C(=O)N[C@@H](CCCCN)C(=O)N[C@@H](CCCCN)C(=O)N[C@@H](CCCCN)C(=O)N[C@@H](CCCCNC(=O)[C@H]1NC(=O)[C@H]2NC(=O)[C@H](NC(=O)[C@@H]3NC(=O)[C@H](CC(N)=O)NC(=O)[C@H](NC(=O)[C@@H](CC(C)C)NC)[C@H](O)c4ccc(c(Cl)c4)Oc4cc3cc(c4O[C@@H]3O[C@H](CO)[C@@H](O)[C@H](O)[C@H]3O[C@H]3C[C@](C)(N)[C@H](O)[C@H](C)O3)Oc3ccc(cc3Cl)[C@H]2O)c2ccc(O)c(c2)-c2c(O)cc(O)cc21)C(=O)O [Compound 39, nC10CO-GSKKK-K-(Vancomycin)-OH]
Ac2Kaa concentration required to neutralise MIC activity [1]: 400 µg/mL
MIC [1]: 0.06 µg/mL (≈ 0.0264 µM)
Molar excess of Ac2Kaa ligand required to antagonise antibacterial activity [1]: 30,569
